Five compounds from patent publication US9533961B2, “Molecules having certain pesticidal utilities, and intermediates, compositions, and processes related thereto” (priority 2014, dated 2017) can be followed below.

Like-named read-outs stand apart in the source and are kept apart here.

What all share (format): in vivo
Data set [1] has as its system Beet Armyworm (Spodoptera exigua, LAPHEG) ("BAW"). The experiment in a line: Bioassay on Beet Armyworm (BAW), 128-well diet tray assay. Conditions: 168 h, read-out: BAW % Control (or Mortality) rating. How it is done: (§1) Certain molecules disclosed in this document were tested against BAW and CEW using procedures described in the following examples. In the reporting of the results, the “BAW & CL Rating Table” was used (See Table Section).
Bioassays on BAW were conducted using a 128-well diet tray assay. one to five second instar BAW larvae were placed in each well (3 mL) of the diet tray that had been previously filled with 1 mL of artificial diet to which 50 μg/cm^2 of the test compound (dissolved in 50 μL of 90:10 acetone-water mixture) had been applied (to each of eight wells) and then allowed to dry. Trays were covered with a clear self-adhesive cover and held at 25° C., 14:10 light-dark for five to seven days. Percent mortality was recorded for the larvae in each well; activity in the eight wells was then averaged. The results are indicated in the table entitled “Table ABC: Biological Results” (See Table Section).

Data set [2] has as its system Green Peach Aphid (Myzus persicae, MYZUPE) ("GPA"). The experiment in a line: Bioassay on Green Peach Aphid (GPA), foliar spray on cabbage seedlings. The conditions noted are these: 72 h, read-out: GPA % Control (or Mortality) rating. How it is done:
Certain molecules disclosed in this document were tested against GPA using procedures described in the following example. In the reporting of the results, the “GPA Rating Table” was used (See Table Section).
Cabbage seedlings grown in 3-inch pots, with 2-3 small (3-5 cm) true leaves, were used as test substrate. The seedlings were infested with 20-50 GPA (wingless adult and nymph stages) one day prior to chemical application. Four pots with individual seedlings were used for each treatment. Test compounds (2 mg) were dissolved in 2 mL of acetone/methanol (1:1) solvent, forming stock solutions of 1000 ppm test compound. The stock solutions were diluted 5× with 0.025% Tween 20 in water to obtain the solution at 200 ppm test compound. A hand-held aspirator-type sprayer was used for spraying a solution to both sides of […] leaves until runoff. Reference plants (solvent check) were sprayed with the diluent only containing 20% by volume of acetone/methanol (1:1) solvent. Treated plants were held in a holding room for three days at approximately 25° C. and ambient relative humidity (RH) prior to grading. Evaluation was conducted by counting the number of live aphids per plant under a microscope. Percent Control was measured by using Abbott's correction formula (W. S. Abbott, “A Method of Computing the Effectiveness of an Insecticide” J. Econ. Entomol. 18 (1925), pp. 265-267) as follows. Corrected % Control=100*(X−Y)/X • where • X=No. of live aphids on solvent check plants and • Y=No. of live aphids on treated plants

For data set [3], the system named is Cabbage Looper (Trichoplusia ni, TRIPNI) ("CL"). The data set is described as follows: Bioassay on Cabbage Looper (CL), 128-well diet tray assay. The conditions noted are these: 168 h, read-out: CL % Control (or Mortality) rating. How it is done:
as §1
Bioassays on CL were conducted using a 128-well diet tray assay. one to five second instar CL larvae were placed in each well (3 mL) of the diet tray that had been previously filled with 1 mL of artificial diet to which 50 μg/cm^2 of the test compound (dissolved in 50 μL of 90:10 acetone-water mixture) had been applied (to each of eight wells) and then allowed to dry. Trays were covered with a clear self-adhesive cover and held at 25° C., 14:10 light-dark for five to seven days. Percent mortality was recorded for the larvae in each well; activity in the eight wells was then averaged. The results are indicated in the table entitled “Table ABC: Biological Results” (See Table Section).

Data set [4] relates to Yellow Fever Mosquito (Aedes aegypti, AEDSAE) ("YFM"). The data set is described as follows: Bioassay on Yellow Fever Mosquito (YFM), 96-well plate larval assay. The conditions noted are these: about 1 day-old larvae, from 4000 ppm master plate, scored on mortality after 3 days. How it is done: Certain molecules disclosed in this document were tested against YFM using procedures described in the following paragraph. In the reporting of the results, the “YFM Rating Table” was used (See Table Section).
Master plates containing 400 μg of a molecule dissolved in 100 μL of dimethyl sulfoxide (DMSO) (equivalent to a 4000 ppm solution) are used. A master plate of assembled molecules contains 15 μL per well. To this plate, 135 μL of a 90:10 water:acetone mixture is added to each well. A robot (Biomek® NXP Laboratory Automation Workstation) is programmed to dispense 15 μL aspirations from the master plate into an empty 96-well shallow plate (“daughter” plate). There are 6 reps (“daughter” plates) created per master. The created daughter plates are then immediately infested with YFM larvae.
The day before plates are to be treated, mosquito eggs are placed in Millipore water containing liver powder to begin hatching (4 g. into 400 mL). After the daughter plates are created using the robot, they are infested with 220 μL of the liver powder/larval mosquito mixture (about 1 day-old larvae). After plates are infested with mosquito larvae, a non-evaporative lid is used to cover the plate to reduce drying. Plates are held at room temperature for 3 days prior to grading. After 3 days, each well is observed and scored based on mortality.

Setting [5] is: 50 μg/cm^2 on artificial diet, second instar larvae, five to seven days, 25° C., average of eight wells.
The mark [6] stands for this setting: 200 ppm foliar spray on cabbage seedlings, three days, Abbott corrected % control.

The mortality is the share of the test organisms that died.

On to `Cc1cccc(C)c1Nc1ccccc1C(=O)Nc1ccc(-c2ncn(-c3ccc(OC(F)(F)F)cc3)n2)cc1` [F1, 2-((2,6-dimethylphenyl)amino)-N-(4-(1-(4-(trifluoromethoxy)phenyl)-1H-1,2,4-triazol-3-yl)phenyl)benzamide], for which the mortality at 50 µg/cm2 in data set [1] (setting [5]) and in data set [3] was 0% each time. The mortality at 200 ppm in data set [2] (setting [6]) lay in the range of 0 to 80%.

With `Cc1cccc(C)c1Nc1ccccc1C(=O)Nc1ccc(-c2ncn(-c3ccc(C(F)(F)F)cc3)n2)cc1` [F2, 2-((2,6-Dimethylphenyl)amino)-N-(4-(1-(4-(trifluoromethyl)phenyl)-1H-1,2,4-triazol-3-yl)phenyl)benzamide], the mortality at 50 µg/cm2 in data set [1] and in data set [3] was 0% each time. Further, in data set [2] (foliar), the mortality at 200 ppm is 0 to 80%.

For the compound `O=C(Nc1ccc(-c2ncn(-c3ccc(OC(F)(F)F)cc3)n2)cc1)c1ccccc1Nc1ccccc1` [F7, 2-(phenylamino)-N-(4-(1-(4-(trifluoromethoxy)phenyl)-1H-1,2,4-triazol-3-yl)phenyl)benzamide], the “YFM % Control (or Mortality) rating” value in data set [4] was “A (80-100)”. The mortality at 50 µg/cm2 in data set [1] (setting [5]) and in data set [3] was 50 to 100% in each case. For the same compound, the mortality at 200 ppm in data set [2] (setting [6]) fell in the range of 0 to 80%.

For the compound `COc1cccc(C(=O)Nc2ccc(-c3ncn(-c4ccc(OC(F)(F)C(F)(F)F)cc4)n3)cc2)c1` [F14, 3-Methoxy-N-(4-(1-(4-(perfluoroethoxy)phenyl)-1H-1,2,4-triazol-3-yl)phenyl)benzamide], in data set [4], the “YFM % Control (or Mortality) rating” value is “A (80-100)”. Also, the mortality at 50 µg/cm2 in data set [1] (setting [5]) and in data set [3] was 50 to 100% in each case. For the same compound, in data set [2] (setting [6]), the mortality at 200 ppm was determined as 0%.

As to `CC(C)c1cccc(C(=O)NCCc2ccc(-c3ncn(-c4ccc(OC(F)(F)F)cc4)n3)cc2)c1` [F41, 3-Isopropyl-N-(4-(1-(4-(trifluoromethoxy)phenyl)-1H-1,2,4-triazol-3-yl)phenethyl)benzamide], in data set [4], the “YFM % Control (or Mortality) rating” value was “D (No activity noticed in this bioassay)”. Besides, the mortality at 50 µg/cm2 in data set [1] (setting [5]) was 0%; in data set [3], 50 to 100%. Also, in data set [2] (setting [6]), the mortality at 200 ppm is 0%.
